Earlier results, collected in patent publication US8298564B2, “Two part antimicrobial boot” (Medtronic, Inc., priority 2006, dated 2012).

What was measured:
[1] = not given; remark: listed apart in the source

Row | Compound | degradation under steam sterilization | degradation with ethylene oxide sterilization ([1]; ethylene oxide sterilization) | degradation or loss in antimicrobial activity of rifampin-containing devices treated with ethylene oxide ([1]; devices containing rifampin treated with ethylene oxide, reported by numerous studies) | degradation on ethylene oxide sterilization, as discovered in U.S. patent application Ser. No. 11/535,762 ([1]; ethylene oxide sterilization)
1 | CN(C)c1ccc(O)c2c1C[C@H]1C[C@H]3[C@H](N(C)C)C(O)=C(C(N)=O)C(=O)[C@@]3(O)C(O)=C1C2=O [minocycline] | degrades to unacceptable levels | does not appear to substantially degrade | – | –
2 | CO[C@H]1/C=C/O[C@@]2(C)Oc3c(C)c(O)c4c(O)c(c(/C=N/N5CCN(C)CC5)c(O)c4c3C2=O)NC(=O)/C(C)=C\C=C\[C@H](C)[C@H](O)[C@@H](C)[C@@H](O)[C@@H](C)[C@H](OC(C)=O)[C@@H]1C [rifampin] | fairly stable | – | no detectable degradation or no loss in antimicrobial activity | substantial degradation
